2 molecules from US20090062301A1, “PHARMACEUTICAL COMBINATION COMPOSITION COMPRISING AT LEAST ONE PKC INHIBITOR AND AT LEAST ONE JA K3 KINASE INHIBITOR FOR TREATING AUTOIMMUNE DISORDERS” (priority 2006, published 2009) can be followed below.

This assay deals with donor heart graft (rejection). The assay can be described thus: Rat heart transplantation (graft survival). The assay is classed as in vivo, rat (Male Lewis and BN). From the text:
A. Rat Heart Transplantation
The strain combination used: Male Lewis (RT^1 haplotype) and BN (RT^1 haplotype). The animals are anaesthetised using inhalational isofluorane. […] The aorta is ligated and divided distal to the first branch and the brachiocephalic trunk is divided at the first bifurcation. The left pulmonary artery is ligated and divided and the right side divided but left open. All other vessels are dissected free, ligated and divided and the donor heart is removed into iced saline.
The recipient is prepared by dissection and cross-clamping of the infra-renal abdominal aorta and vena cava. The graft is implanted with end-to-side anastomoses, using 10/0 monofilament suture, between the donor brachiocephalic trunk and the recipient aorta and the donor right pulmonary artery to the recipient vena cava. The clamps are removed, the graft tethered retroabdominally, the abdominal contents washed with warm saline and the animal is closed and allowed to recover under a heating lamp. Graft survival is monitored by daily palpation of the beating donor heart through the abdominal wall. Rejection is considered to be complete when heart beat stops.

As to `C[C@@H]1CCN(C(=O)CC#N)C[C@@H]1N(C)c1ncnc2[nH]ccc12` [CP-690,550, 3-{(3R,4R)-4-methyl-3-[methyl-(7H-pyrrolo[2,3-d]pyrimidin-4-yl)-amino]-piperidin-1-yl}-3-oxo-propionitrile], the EC50 (672 h, rat heart transplantation, CP-690,550 in mono-citrate salt form, concentration in blood, read-out: EC50 (drug concentration in blood at which 50% of the animals maintain their graft for >28 days)) is 0.06 µg/mL. Also, the graft survival result (rat heart transplantation, Compound A in the acetate form at 1 to 30 mg/kg/day and CP-690,550 mono-citrate at an EC50 of 60 ng/ml) is listed as “significantly increase the graft survival”.
Turning to `CN1CCN(c2nc(C3=C(c4c[nH]c5ccccc45)C(=O)NC3=O)c3ccccc3n2)CC1` [Compound A, 3-(1.H.-indol-3-yl)-4-[2-(4-methyl-piperazin-1-yl)-quinazolin-4-yl]-pyrrole-2,5-dione], for the setting “rat, in vivo”, the graft survival result was “significantly increase the graft survival”.
